Read-outs that look alike come from different tables or passages of the source.
How the values were obtained:
Conditions in all cases: Homo sapiens, 4 h, two to four hours at 37° C.
P-4E-BP1 (T37/46) = experiment: Cell based AlphaLISA assay, inhibition of P-4E-BP1 (T37/46) in MDA-MB-468 cells (mTORC1 substrate)
Method in brief: (§1)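 In MDA-MB-468 cells, phosphorylation of 4EBP1 (Thr37/46), P70S6K (Thr389) and AKT (Ser473) was measured after incubation with inhibitor by AlphaLISA SureFire Ultra on cell lysates, in duplicate. IC50 values came from control-normalized concentration-response regression.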

P-P70S6K (T389) = experiment: Cell based AlphaLISA assay, inhibition of P-P70S6K (T389) in MDA-MB-468 cells (mTORC1 substrate)
Method in brief: as §1

P-Akt (S473) = experiment: Cell based AlphaLISA assay, inhibition of P-Akt (S473) in MDA-MB-468 cells (mTORC2 substrate)
Method in brief: as §1

[1] = AlphaLisa, read-out: pIC50 for Inhibition of mTORC1 and mTORC2 Substrate Phosphorylation P-4E-BP1-(T37/46) (converted)
[2] = AlphaLisa, read-out: pIC50 for Inhibition of mTORC1 and mTORC2 Substrate Phosphorylation p-P70S6K-(T389) (converted)
[3] = AlphaLisa, read-out: pIC50 for Inhibition of mTORC1 and mTORC2 Substrate Phosphorylation p-AKT1/2/3-(S473) (converted)
[4] = AlphaLisa SureFire Ultra, read-out: IC50 for Inhibition of mTORC1 and mTORC2 Substrate Phosphorylation (nM) p-4E-BP1-(T37/46)
[5] = AlphaLisa SureFire Ultra, read-out: IC50 for Inhibition of mTORC1 and mTORC2 Substrate Phosphorylation (nM) p-P7056K-(T389)
[6] = AlphaLisa SureFire Ultra, read-out: IC50 for Inhibition of mTORC1 and mTORC2 Substrate Phosphorylation (nM) p-AKT1/2/3-(5473)

IC50 (P-4E-BP1 (T37/46); [4]) [nM] | IC50 (P-P70S6K (T389); [5]) [nM] | IC50 (P-Akt (S473); [6]) [nM] | SMILES | IC50 (P-4E-BP1 (T37/46); [1]) [nM] | IC50 (P-P70S6K (T389); [2]) [nM] | IC50 (P-Akt (S473); [3]) [nM]
 |  |  | CO[C@H]1C[C@@H]2CC[C@@H](C)[C@@](O)(O2)C(=O)C(=O)N2CCCC[C@H]2C(=O)O[C@H]([C@H](C)C[C@@H]2CC[C@@H](OC(=O)NCc3cnc(N4CCN(C(=O)CCOCCN5CCN(C(=O)CCC(=O)N6CCc7cc(Cn8nc(-c9ccc%10oc(N)nc%10c9)c9c(N)ncnc98)ccc7C6)CC5)CC4)nc3)[C@H](OC)C2)C[C@@H](OC)[C@H](C)/C=C(\C)[C@@H](O)[C@@H](OC)C(=O)[C@H](C)C[C@H](C)/C=C/C=C/C=C/1C [Example 133] | < 3.16 | < 1 | 3.16 to 31.6
 |  |  | CO[C@H]1C[C@@H]2CC[C@@H](C)[C@@](O)(O2)C(=O)C(=O)N2CCCC[C@H]2C(=O)O[C@H]([C@H](C)C[C@@H]2CC[C@@H](OC(=O)NCc3cnc(N4CCN(C(=O)CCOCCN5CCN(c6ncc(C(=O)N7CCc8cc(Cn9nc(-c%10ccc%11oc(N)nc%11c%10)c%10c(N)ncnc%109)ccc8C7)cn6)CC5)[C@@H](C(=O)O)C4)nc3)[C@H](OC)C2)C[C@@H](OC)[C@H](C)/C=C(\C)[C@@H](O)[C@@H](OC)C(=O)[C@H](C)C[C@H](C)/C=C/C=C/C=C/1C [Example 134] | < 3.16 | < 1 | > 1000
 |  |  | CO[C@H]1C[C@@H]2CC[C@@H](C)[C@@](O)(O2)C(=O)C(=O)N2CCCC[C@H]2C(=O)O[C@H]([C@H](C)C[C@@H]2CC[C@@H](OC(=O)NCc3cnc(N4CCN(C(=O)CCOCCN5CCN(c6ncc(C(=O)N7CCc8cc(Cn9nc(-c%10cnc%11[nH]ccc%11c%10)c%10c(N)ncnc%109)ccc8C7)cn6)CC5)[C@@H](C(=O)O)C4)nc3)[C@H](OC)C2)CC(=O)[C@H](C)/C=C(\C)[C@@H](O)[C@@H](OC)C(=O)[C@H](C)C[C@H](C)/C=C/C=C/C=C/1C [Example 135] | > 1000 | < 1 | > 1000
 |  |  | CO[C@H]1C[C@@H]2CC[C@@H](C)[C@@](O)(O2)C(=O)C(=O)N2CCCC[C@H]2C(=O)O[C@H]([C@H](C)C[C@@H]2CC[C@@H](O)[C@H](OC)C2)CC(=O)[C@H](C)/C=C(\C)[C@@H](OC(=O)NCc2cnc(N3CCN(C(=O)CCOCCN4CCN(c5ncc(C(=O)N6CCc7cc(Cn8nc(-c9ccc%10oc(N)nc%10c9)c9c(N)ncnc98)ccc7C6)cn5)CC4)CC3)nc2)[C@@H](OC)C(=O)[C@H](C)C[C@H](C)/C=C/C=C/C=C/1C [Example 136] | 3.16 to 31.6 | < 1 | 3.16 to 31.6
 |  |  | CO[C@H]1C[C@@H]2CC[C@@H](C)[C@@](O)(O2)C(=O)C(=O)N2CCCC[C@H]2C(=O)O[C@H]([C@H](C)C[C@@H]2CC[C@@H](OC(=O)NCc3cnc(N4CCN(C(=O)CCOCCN5CCN(c6ncc(C(=O)N7CCc8cc(Cn9nc(-c%10ccc%11oc(N)nc%11c%10)c%10c(N)ncnc%109)ccc8C7)cn6)CC5)CC4)nc3)[C@H](OC)C2)C[C@H](N=[N+]=[N-])[C@H](C)/C=C(\C)[C@@H](O)[C@@H](OC)C(=O)[C@H](C)C[C@H](C)/C=C/C=C/C=C/1C [Example 137] | < 3.16 | < 1 | 3.16 to 31.6
 |  |  | CO[C@H]1C[C@@H]2CC[C@@H](C)[C@@](O)(O2)C(=O)C(=O)N2CCCC[C@H]2C(=O)O[C@H]([C@H](C)C[C@@H]2CC[C@@H](OC(=O)NCc3cnc(N4CCN(c5ncc(C(=O)N6CCN(c7ncc(C(=O)NCCCCn8nc(-c9ccc%10oc(N)nc%10c9)c9c(N)ncnc98)cn7)CC6)cn5)CC4)nc3)[C@H](OC)C2)CC(=O)[C@H](C)/C=C(\C)[C@@H](O)[C@@H](OC)C(=O)[C@H](C)C[C@H](C)/C=C/C=C/C=C/1C [Example 138] | < 3.16 | < 1 | < 3.16
 |  |  | CO[C@H]1C[C@@H]2CC[C@@H](C)[C@@](O)(O2)C(=O)C(=O)N2CCCC[C@H]2C(=O)O[C@H]([C@H](C)C[C@@H]2CC[C@@H](OC(=O)NCc3cnc(N4CCN(c5ncc(C(=O)N6CCN(c7ncc(C(=O)N8CCc9cc(Cn%10nc(-c%11ccc%12oc(N)nc%12c%11)c%11c(N)ncnc%11%10)ccc9C8)cn7)CC6)cn5)CC4)nc3)[C@H](OC)C2)CC(=O)[C@H](C)/C=C(\C)[C@@H](O)[C@@H](OC)C(=O)[C@H](C)C[C@H](C)/C=C/C=C/C=C/1C [Example 139] | < 3.16 | < 1 | 31.6 to 1000
 |  |  | CO[C@H]1C[C@@H]2CC[C@@H](C)[C@@](O)(O2)C(=O)C(=O)N2CCCC[C@H]2C(=O)O[C@H]([C@H](C)C[C@@H]2CC[C@@H](OC(=O)NCc3cnc(N4CCN(c5ncc(C(=O)N6CCN(c7ncc(C(=O)N8CCc9cc(Cn%10nc(-c%11cnc%12[nH]ccc%12c%11)c%11c(N)ncnc%11%10)ccc9C8)cn7)CC6)cn5)CC4)nc3)[C@H](OC)C2)CC(=O)[C@H](C)/C=C(\C)[C@@H](O)[C@@H](OC)C(=O)[C@H](C)C[C@H](C)/C=C/C=C/C=C/1C [Example 140] | 31.6 to 1000 | 10 to 1000 | > 1000
 |  |  | CO[C@H]1C[C@@H]2CC[C@@H](C)[C@@](O)(O2)C(=O)C(=O)N2CCCC[C@H]2C(=O)O[C@H]([C@H](C)C[C@@H]2CC[C@@H](OC(=O)N3CCc4nc(N5CCN(c6ncc(C(=O)N7CCN(c8ncc(C(=O)N9CCc%10cc(Cn%11nc(-c%12cnc%13[nH]ccc%13c%12)c%12c(N)ncnc%12%11)ccc%10C9)cn8)CC7)cn6)CC5)ncc4C3)[C@H](OC)C2)CC(=O)[C@H](C)/C=C(\C)[C@@H](O)[C@@H](OC)C(=O)[C@H](C)C[C@H](C)/C=C/C=C/C=C/1C [Example 142] | > 1000 | 1 to 10 | > 1000
 |  |  | CO[C@H]1C[C@@H]2CC[C@@H](C)[C@@](O)(O2)C(=O)C(=O)N2CCCC[C@H]2C(=O)O[C@H]([C@H](C)C[C@@H]2CC[C@@H](OC(=O)NCCOCCOCCN3CCN(CCOCCOCCOCCOCCC(=O)N4CCc5cc(Cn6nc(-c7ccc8oc(N)nc8c7)c7c(N)ncnc76)ccc5C4)CC3)[C@H](OC)C2)C[C@@H](O)[C@H](C)/C=C(\C)[C@@H](O)[C@@H](OC)C(=O)[C@H](C)C[C@H](C)/C=C/C=C/C=C/1C [Example 143] | 3.16 to 31.6 | < 1 | > 1000
 |  |  | CO[C@H]1C[C@@H]2CC[C@@H](C)[C@@](O)(O2)C(=O)C(=O)N2CCCC[C@H]2C(=O)O[C@H]([C@H](C)C[C@@H]2CC[C@@H](OC(=O)NCCOCCOCCN3C[C@@H]4C[C@H]3CN4CCOCCOCCOCCOCCC(=O)N3CCc4cc(Cn5nc(-c6ccc7oc(N)nc7c6)c6c(N)ncnc65)ccc4C3)[C@H](OC)C2)C[C@@H](O)[C@H](C)/C=C(\C)[C@@H](O)[C@@H](OC)C(=O)[C@H](C)C[C@H](C)/C=C/C=C/C=C/1C [Example 144] | < 3.16 | < 1 | 3.16 to 31.6
16 | 1.4 | 3.7 | CC(C)n1nc(-c2ccc3oc(N)nc3c2)c2c(N)ncnc21 [MLN-128, reference compound] |  |  | 
> 1000 | 0.2 | > 1000 | CO[C@H]1C[C@@H]2CC[C@@H](C)[C@@](O)(O2)C(=O)C(=O)N2CCCC[C@H]2C(=O)O[C@H]([C@H](C)C[C@@H]2CC[C@@H](O)[C@H](OC)C2)CC(=O)[C@H](C)/C=C(\C)[C@@H](O)[C@@H](OC)C(=O)[C@H](C)C[C@H](C)/C=C/C=C/C=C/1C [Rapamycin, (3S,6R,7E,9R,10R,12R,14S,15E,17E,19E,21S,23S,26R,27R,34aS)-9,10,12,13,14,21,22,23,24,25,26,27,32,33,34,34a-hexadecahydro-9,27-dihydroxy-3-[(1R)-2-[(1S,3R,4R)-4-hydroxy-3-methoxycyclohexyl]-1-methylethyl]-10,21-dimethoxy-6,8,12,14,20,26-hexamethyl-23,27-epoxy-3H-pyrido[2,1-c][1,4]-oxaazacyclohentriacontine-1,5,11,28,29(4H,6H,31H)-pentone, reference compound] |  |  | 

Reference: US10980889B1 (Revolution Medicines, Inc., priority 2018, dated 2021)
